Assays:
MMP-7 (Matrilysin) = molecular target: T1, MMP-7 (Matrilysin) (Homo sapiens, UniProt P09237); assay: Ki determination with fluorogenic synthetic substrates, recombinant MMP-7; format: biochemical; settings: @ 20 mM inhibitor; listed as R I
T1 construct: made in house; host or cells: E. coli
T1 sequence (P09237 95-267): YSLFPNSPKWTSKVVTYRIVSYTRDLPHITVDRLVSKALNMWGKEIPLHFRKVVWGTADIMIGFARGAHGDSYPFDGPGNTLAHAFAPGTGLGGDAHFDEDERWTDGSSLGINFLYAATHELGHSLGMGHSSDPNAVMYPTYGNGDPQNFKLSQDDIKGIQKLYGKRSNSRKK
Method: (§1) The MMPs used were produced in recombinant form, in an E. coli expression system, and then purified using different types of chromatographies. Apart from stromelysin-3 (MMP-11), the MMPs produces correspond to human sequences. The Stromelysin-3 used in this study corresponds to the murine form.
(§2) The activity of each MMP was determined using two fluorogenic synthetic substrates. The cutoff of said substrates, which generates a fluorescent signal proportional to the quantity of split substrate, enables a precise determination of the kinetic parameters. The affinity constants Ki were calculated using the equation of Horowitz et al, Proc. Natl. Acad. Sci. USA, 1987, 84, p. 6654-6658 [14], accounting for the dependency of the percentage of inhibition measured experimentally according to the concentration of inhibitor, as a function of the enzyme and substrate concentration.
(§3) The experiments for conducted in a Tris/50 mM HCl buffer, pH 6.8, 10 mM CaCl2, 25° C.

MMP-2 (Gel-A) = molecular target: T2, MMP-2 (Gel-A) (Homo sapiens, UniProt P08253); assay: Ki determination with fluorogenic synthetic substrates, recombinant MMP-2; format: biochemical; settings: Tris/50 mM HCl buffer, pH 6.8, 10 mM CaCl2, 25° C.; read-out: affinity constant Ki, MMP-2 Gel-A
T2 construct: made in house; host or cells: E. coli
T2 sequence (P08253 110-660): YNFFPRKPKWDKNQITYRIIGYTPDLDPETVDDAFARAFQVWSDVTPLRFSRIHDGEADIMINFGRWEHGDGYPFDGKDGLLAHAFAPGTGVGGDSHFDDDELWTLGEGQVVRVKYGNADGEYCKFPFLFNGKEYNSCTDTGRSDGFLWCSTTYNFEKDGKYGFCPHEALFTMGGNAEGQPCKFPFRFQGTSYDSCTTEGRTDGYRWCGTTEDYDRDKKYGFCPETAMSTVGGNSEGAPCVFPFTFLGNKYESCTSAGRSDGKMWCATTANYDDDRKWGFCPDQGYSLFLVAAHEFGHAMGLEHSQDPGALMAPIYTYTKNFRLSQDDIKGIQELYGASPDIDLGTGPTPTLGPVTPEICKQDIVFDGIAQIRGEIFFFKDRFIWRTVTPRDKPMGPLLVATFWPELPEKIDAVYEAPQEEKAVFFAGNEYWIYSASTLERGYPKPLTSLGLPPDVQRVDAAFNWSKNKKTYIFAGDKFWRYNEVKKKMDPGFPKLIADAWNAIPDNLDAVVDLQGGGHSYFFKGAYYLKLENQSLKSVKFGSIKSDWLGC
Method: as §1, §2, §3

MMP-1 (HFC) = molecular target: T3, MMP-1 (HFC) (Homo sapiens, UniProt P03956); assay: Ki determination with fluorogenic synthetic substrates, recombinant MMP-1; format: biochemical; settings: @ 2 mM inhibitor; listed as R I
T3 construct: made in house; host or cells: E. coli
T3 sequence (P03956 100-469): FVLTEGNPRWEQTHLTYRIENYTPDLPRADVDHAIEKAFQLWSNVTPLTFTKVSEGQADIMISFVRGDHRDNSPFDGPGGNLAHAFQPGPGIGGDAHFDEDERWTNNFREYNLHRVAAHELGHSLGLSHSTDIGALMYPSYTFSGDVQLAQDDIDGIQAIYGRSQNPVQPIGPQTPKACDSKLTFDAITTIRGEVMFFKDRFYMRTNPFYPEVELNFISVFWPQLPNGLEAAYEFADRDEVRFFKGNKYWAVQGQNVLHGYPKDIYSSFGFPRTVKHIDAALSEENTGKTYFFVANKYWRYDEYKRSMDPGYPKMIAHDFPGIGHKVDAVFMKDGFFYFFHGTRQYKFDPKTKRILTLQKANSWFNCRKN
Method: as §1, §2, §3

MMP-9 (Gel-B) = molecular target: T4, MMP-9 (Gel-B) (Homo sapiens, UniProt P14780); assay: Ki determination with fluorogenic synthetic substrates, recombinant MMP-9; format: biochemical; settings: Tris/50 mM HCl buffer, pH 6.8, 10 mM CaCl2, 25° C.; read-out: affinity constant Ki, MMP-9 Gel-B
T4 construct: made in house; host or cells: E. coli
Method: as §1, §2, §3

MMP-14 (MT1-MMP) = molecular target: T5, MMP-14 (MT1-MMP) (Homo sapiens, UniProt P50281); assay: Ki determination with fluorogenic synthetic substrates, recombinant MMP-14; format: biochemical; settings: Tris/50 mM HCl buffer, pH 6.8, 10 mM CaCl2, 25° C.; read-out: affinity constant Ki, MMP-14 MT1-MMP
T5 construct: made in house; host or cells: E. coli
Method: as §1, §2, §3

[1] = molecular target: T6, MMP-11 (stromelysin-3, mST3) (Mus musculus, UniProt Q02853); assay: Ki determination with fluorogenic synthetic substrates, recombinant MMP-11; format: biochemical, murine; settings: Tris/50 mM HCl buffer, pH 6.8, 10 mM CaCl2, 25° C.; read-out: affinity constant Ki, MMP-11 mST3
T6 construct: made in house; host or cells: E. coli
T6 sequence (Q02853 102-492): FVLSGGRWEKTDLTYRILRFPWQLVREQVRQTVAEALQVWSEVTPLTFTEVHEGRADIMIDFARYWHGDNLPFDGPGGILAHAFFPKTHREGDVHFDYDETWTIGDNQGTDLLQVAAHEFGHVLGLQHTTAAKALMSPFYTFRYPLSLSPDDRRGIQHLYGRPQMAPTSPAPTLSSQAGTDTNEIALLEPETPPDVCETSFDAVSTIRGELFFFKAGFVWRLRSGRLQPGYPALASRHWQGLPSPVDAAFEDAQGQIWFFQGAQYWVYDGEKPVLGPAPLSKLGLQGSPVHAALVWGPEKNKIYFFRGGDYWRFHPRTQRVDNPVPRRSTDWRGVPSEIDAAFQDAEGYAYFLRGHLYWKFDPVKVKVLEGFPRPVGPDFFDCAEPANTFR
Method: as §1, §2, §3

[2] = system: malignant murine C26 cells; assay: Tumorigenesis model: subcutaneous graft of malignant murine C26 cells in syngenic mice; format: in vivo; settings: 150 μg of inhibitor/mouse/day, intraperitoneal
Method: The tumorigenesis model used to test the effect of said RXPO3 inhibitor in vivo consists of a subcutaneous graft of malignant murine C26 cells in syngenic mice (with a genetic background similar to that of the injected cells).
The C26 cells established from Balb c mouse colic cancer (Corbett et al., 1975, Cancer Res, 35:2434-2439 [15] are cultured until subconfluence. After trypsinisation, the cells are centrifuged at 1000 g for 10 minutes. The sediment is washed and resuspended in 1×PBS. A […] volume, containing 5×10^4 C26 cells, is injected subcutaneously at 2 sites on the back of 8 to 9-week old mice. The inhibitor is solubilised in 1× PBS and […] of inhibitor in a […] volume is administered by the intraperitoneal route. The treatment starts on the day of the injection of the C26 cells and continues at a rate of one injection a day for 25 days. The tumoral volumes are measured every day.
Three identical and independent tumorigenesis experiments were conducted, according to the protocol given above. The results obtained were similar. One of them is reported below.
The experiment related to 12 animals, 6 receiving a treatment (150 μg of inhibitor/mouse/day) and 6 used as controlled animals (150 μl 1×PBS).

MMP-8 (HNC) = molecular target: T7, MMP-8 (HNC) (Homo sapiens, UniProt P22894); assay: Ki determination with fluorogenic synthetic substrates, recombinant MMP-8; format: biochemical; settings: Tris/50 mM HCl buffer, pH 6.8, 10 mM CaCl2, 25° C.; read-out: affinity constant Ki, MMP-8 HNC
T7 construct: made in house; host or cells: E. coli
Method: as §1, §2, §3

T4 sequence (P14780 94-707): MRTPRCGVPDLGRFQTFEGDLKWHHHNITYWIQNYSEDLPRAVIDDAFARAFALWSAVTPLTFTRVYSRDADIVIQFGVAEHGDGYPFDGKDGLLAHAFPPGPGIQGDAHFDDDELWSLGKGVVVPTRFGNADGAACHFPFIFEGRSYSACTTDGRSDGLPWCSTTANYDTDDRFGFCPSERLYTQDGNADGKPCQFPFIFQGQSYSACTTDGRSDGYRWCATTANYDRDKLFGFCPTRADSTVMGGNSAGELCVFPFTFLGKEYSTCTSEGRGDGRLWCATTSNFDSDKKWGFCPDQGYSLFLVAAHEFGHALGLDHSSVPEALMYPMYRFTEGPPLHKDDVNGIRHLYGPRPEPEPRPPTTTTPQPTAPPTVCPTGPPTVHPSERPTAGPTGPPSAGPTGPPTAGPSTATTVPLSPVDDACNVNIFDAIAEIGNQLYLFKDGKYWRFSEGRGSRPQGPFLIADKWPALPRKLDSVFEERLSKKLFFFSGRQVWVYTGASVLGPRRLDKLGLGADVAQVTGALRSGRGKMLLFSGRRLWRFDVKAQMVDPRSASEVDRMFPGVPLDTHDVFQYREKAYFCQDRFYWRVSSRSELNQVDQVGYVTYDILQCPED
T7 sequence (P22894 101-467): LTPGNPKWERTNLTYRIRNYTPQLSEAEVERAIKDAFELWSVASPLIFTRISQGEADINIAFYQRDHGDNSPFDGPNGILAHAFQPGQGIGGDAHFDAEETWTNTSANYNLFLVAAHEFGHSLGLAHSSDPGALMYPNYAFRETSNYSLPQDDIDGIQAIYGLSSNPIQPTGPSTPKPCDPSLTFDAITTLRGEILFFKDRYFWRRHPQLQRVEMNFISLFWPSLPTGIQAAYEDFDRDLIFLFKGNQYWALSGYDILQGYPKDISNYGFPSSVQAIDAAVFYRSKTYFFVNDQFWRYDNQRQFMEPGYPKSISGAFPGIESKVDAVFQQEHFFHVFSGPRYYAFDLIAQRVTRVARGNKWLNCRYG

- percentage of inhibition, MMP-7 (MMP-7 (Matrilysin)): 44% @ 20 mM
- Ki (MMP-2 (Gel-A)): 54 nM
- percentage of inhibition, MMP-1 (MMP-1 (HFC)): 18% @ 2 mM
- Ki (MMP-9 (Gel-B)): 42 nM
- Ki (MMP-14 (MT1-MMP)): 90 nM
- Ki [1]: 6 nM
- Ki (MMP-8 (HNC)): 16 nM
Compound: NC(=O)C(Cc1c[nH]c2ccccc12)NC(=O)C(CCCc1ccccc1)CP(=O)(O)C(Cc1ccccc1)NC(=O)OCc1ccccc1 (single isomer, unassigned) [Compound 15 R I, ZPheΨ(PO2CpH2)pPheTrpNH2]
- mean and median tumour volumes in treated versus control animals ([2]; Days 10 to 25): always lower
- difference in tumour size, treated versus control animals ([2]; day D15 to day D20, one injection a day for 25 days): ~50%

From patent US6630501B1, “Phosphinic pseudo-peptides that may be used as matrix zinc metalloprotease inhibitors” (Commissariat a l'energie Atomique, priority 1999, dated 2003)
